The record followed here is US10188634B2, “3-(3H-imidazo[4,5-C]pyridin-2-yl)-1 H-pyrazolo[4,3-B]pyridines and therapeutic uses thereof” (Samumed, LLC, priority 2015, dated 2019).

Some results are limits rather than exact numbers.

What all share (format): cell-based
Experiment [1] has as its system IL-6 in THP-1 cells. In words: Inhibition of IL-6 in LPS-stimulated THP-1 human monocyte cells (HTRF). To be noted: IL-6 HTRF; for EC50: 500 ng/mL LPS, 22 hours. How it is done:
Human Monocyte Cell Culture: Human monocyte cell line (THP-1 cells; Catalog # TIB-202, ATCC, Manassas, Va.) were cultured in Roswell Park Memorial Institute (RPMI) 1640 Medium (Catalog #21870-100, Buffalo, N.Y.) with 1% L-glutamine, 1% HEPES, 1% Sodium Pyruvate, 2% Sodium Bicarbonate supplemented with 100 units/mL penicillin, 50 μg/mL streptomycin, 2-mercaptoethanol (0.05 mM) [basal medium] and 10% fetal bovine serum (Catalog #16140089, Life Technologies, Carlsbad, Calif.) at 37° C. and 5% CO2.
Compound Screening: THP-1 cells were cultured in basal media with 1% FBS for 24 hours before the start of the assay. Each compound was dissolved in DMSO as a 10 mM stock and used to prepare compound source plates. Serial dilution (1:3, 10-point dose-response curves starting from 10 μM) and compound transfer was performed using the ECHO 550 (Labcyte, Sunnyvale, Calif.) into 384-well white low volume assay plates (Greiner Bio-One) with appropriate DMSO backfill for a final DMSO concentration of 0.1%. THP-1 cells were plated at 5000 cells/well in the 384-well plates and incubated at 37° C. for 2 h. 500 ng/mL of LPS was added after 2 hours and cells were incubated for another 22 hours at 37° C. Plates were spun in a centrifuge for 1 minute at […] and a mixture of anti-IL6 XL665, and anti-IL6 Cryptate diluted in reconstitution buffer (Cisbio Inc.) was added to each well. Following incubation for 3 hrs at room temperature, Homogeneous Time-Resolved Fluorescence (HTRF) was measured using the Envision (Perkin Elmer) at 665 nm and […]. The ratio of fluorescence at 665 nm to 620 nm was used as a readout for IL6 quantification. All samples were processed in duplicate. Readings were normalized to DMSO treated cells and normalized activities were utilized for EC50 calculations using the dose-response log (inhibitor) vs. response -variable slope (four parameters) nonlinear regression feature available in GraphPad Prism 5.0 (or Dotmatics). For EC50 of >10 μM, the percent inhibition at 10 μM is provided.
(In TR-FRET formats the signal depends on donor and acceptor labels being close together.)

Experiment [2] relates to Wnt activity (Sp5-Luc reporter, human Sp5 promoter with eight TCF/LEF binding sites) in SW480 colon carcinoma cells. In words: Screening assay for Wnt activity: Sp5-Luc reporter gene assay in SW480 cells. To be noted: 10-point dose-response starting from 10 μM, overnight incubation. The source says:
The screening assay for Wnt activity is described as follows. Reporter cell lines can be generated by stably transducing cancer cell lines (e.g., colon cancer) or primary cells (e.g., IEC-6 intestinal cells) with a lentiviral construct that includes a Wnt-responsive promoter driving expression of the firefly luciferase gene.
SW480 colon carcinoma cells were transduced with a lentiviral vector expressing luciferase with a human Sp5 promoter consisting of a sequence of eight TCF/LEF binding sites. SW480 cells stably expressing the Sp5-Luc reporter gene and a hygromycin resistance gene were selected by treatment with 150 μg/mL of hygromycin for 7 days. These stably transduced SW480 cells were expanded in cell culture and used for all further screening activities. Each compound was dissolved in DMSO as a 10 mM stock and used to prepare compound source plates. Serial dilution (1:3, 10-point dose-response curves starting from 10 μM) and compound transfer was performed using the ECHO 550 (Labcyte, Sunnyvale, Calif.) into 384-well white solid bottom assay plates (Greiner Bio-One) with appropriate DMSO backfill for a final DMSO concentration of 0.1%. For Sp5-Luc reporter gene assays, the cells were plated at 4,000 cells/well in 384-well plates with medium containing 1% fetal bovine serum and incubated overnight at 37° C. and 5% CO2. Following incubation, 20 μl of BrightGlo luminescence reagent (Promega) was added to each well of the 384-well assay plates. The plates were placed on an orbital shaker for 2 min and then luminescence was quantified using the Envision (Perkin Elmer) plate reader. Readings were normalized to DMSO only treated cells, and normalized activities were utilized for EC50 calculations using the dose-response log (inhibitor) vs. response -variable slope (four parameters) nonlinear regression feature available in GraphPad Prism 5.0 (or Dotmatics). For EC50 of >10 μM, the percent inhibition at 10 μM is provided.
(A reporter such as luciferase makes a cellular process visible.)

Experiment [3] concerns SW480 colon cancer cells. In words: Cell viability assay (CellTiter-Blue) in SW480 colon cancer cells. To be noted: Homo sapiens, 96 h; for EC50: four days incubation, CellTiter-Blue cell viability; for inhibition at 10 µM: four days, CellTiter-Blue, read-out: percent inhibition at 10 μM (given for EC50 of >10 μM). How it is done: Representative compounds were screened using the following assay procedure to assess the effect on cell viability as described below.
Each compound was dissolved in DMSO as a 10 mM stock and used to prepare compound source plates. Serial dilution (1:3, 8-point dose-response curves from 10 μM to 0.004 μM) and compound transfer was performed using the ECHO 550 (Labcyte, Sunnyvale, Calif.) into 96-well clear bottom, black-walled plates (Corning-Costar).
Approximately 2×10^3 SW480 colon cancer cells were seeded into each well and allowed to incubate in the presence or absence of compound for four days at 37° C./5% CO2. Eight replicates of DMSO-treated cells served as controls and cells treated with compound were performed in duplicate.
After incubation, 20 μL of CellTiter-Blue (Promega) was added to each well allowed to incubate for approximately 3 hours. This reagent was a buffered solution which contains resazurin, metabolically active cells were able to reduce rezarurin (blue) into resorufin (pink) which was highly fluorescent. This measured fluorescence was used as a readout for cell viability.
After incubation, the plates were read at Ex 560 nm Em 590 nm (Cytation 3, BioTek). Dose-response curves were generated and EC50 concentration values were calculated using non-linear regression curve fit in the GraphPad Prism (San Diego, Calif.) or Dotmatics' Studies Software (Bishops Stortford, UK). For EC50 of >10 μM, the percent inhibition at 10 μM is provided.
(In general: Resazurin is reduced to fluorescent resorufin, in cell work by metabolically active cells.)

For experiment [4], the system named is LL29 cells (primary human fibroblasts derived from IPF patients) treated with TGF-β1, α-smooth muscle actin. In words: Inhibition of the fibrotic process: αSMA staining in TGF-β1 treated primary human fibroblasts from IPF patients (LL29 cells). To be noted: Fibroblast, 96 h, LL29 cells treated with TGF-β1 (20 ng/mL), 4 days. The source says:
Representative compounds were screened using primary human fibroblasts (derived from IPF patients) treated with TGF-β1 to determine their ability to inhibit the fibrotic process.
Human Fibroblast Cell Culture: Primary human fibroblasts derived from IPF patients (LL29 cells) [^1Xiaoqiu Liu, et.al., “Fibrotic Lung Fibroblasts Show Blunted Inhibition by cAMP Due to Deficient cAMP Response Element-Binding Protein Phosphorylation”, Journal of Pharmacology and Experimental Therapeutics (2005), 315(2), 678-687; ^2Watts, K. L., et.al., “RhoA signaling modulates cyclin D1 expression in human lung fibroblasts; implications for idiopathic pulmonary fibrosis”, Respiratory Research (2006), 7(1), 88] were obtained from American Type Culture Collection (ATCC) and expanded in F12 medium supplemented with 15% Fetal Bovine Serum and Penicillin/Streptomycin.
Compound Screening: Each compound was dissolved in DMSO as a 10 mM stock and used to prepare compound source plates. […] LL29 cells are plated at 1,500 cells/well in 80 μL/well F12 medium supplemented with 1% Fetal Bovine Serum. One hour after addition of the cells, TGF-β1 (Peprotech; 20 ng/mL) was added to the plates to induce fibrosis (ref. 1 and 2 above). Wells treated with TGF-β1 and containing DMSO were used as controls. Cells were incubated at 37° C. and 5% CO2 for 4 days. Following incubation for 4 days, SYTOX green nucleic acid stain (Life Technologies [Thermo Fisher Scientific]) was added to the wells at a final concentration of 1 μM and incubated at room temperature for 30 min. Cells were then fixed using 4% formaldehyde (Electron Microscopy Sciences), washed 3 times with PBS followed by blocking and permeabilization using 3% Bovine Serum Albumin (BSA; Sigma) and 0.3% Triton X-100 (Sigma) in PBS. Cells were then stained with antibody specific to α-smooth muscle actin (αSMA; Abcam) (ref. 1 and 2 above) in 3% Bovine Serum Albumin (BSA; Sigma) and 0.3% Triton X-100 (Sigma) in PBS, and incubated overnight at 4° C. Cells were then washed 3 times with PBS, followed by incubation with Alexa Flor-647 conjugated secondary antibody (Life Technologies [Thermo Fisher Scientific]) and DAPI at room temperature for 1 hour. Cells were then washed 3 times with PBS and plates were sealed for imaging. αSMA staining was imaged by excitation at 630 nm and emission at 665 nm and quantified using the Compartmental Analysis program on the CellInsight CX5 (Thermo Scientific). Dead or apoptotic cells were excluded from analysis based on positive SYTOX green staining. % of total cells positive for αSMA were counted in each well and normalized to the average of 11 wells treated with TGF-β1 on the same plate using Dotmatics' Studies Software. The normalized averages (fold change over untreated) of 3 replicate wells for each compound concentration were used to create dose-responses curves and EC50 values were calculated using non-linear regression curve fit in the Dotmatics' Studies Software. For EC50 of >10 μM, the percent inhibition at 10 μM is provided.

The EC50 is the concentration that produces a half-maximal response. Higher therefore signals lower potency in that assay. Consider `Cc1ccc(-c2cncc3[nH]c(-c4n[nH]c5ccc(-c6cncc(OC7CCCCC7)c6)nc45)nc23)s1` [Compound 691, 5-(5-(Cyclohexyloxy)pyridin-3-yl)-3-(7-(5-methylthiophen-2-yl)-3H-imidazo[4,5-c]pyridin-2-yl)-1H-pyrazolo[4,3-b]pyridine], for which the EC50 came out at 0.003 µM in experiment [1], 4.03 µM in experiment [2], 4.63 µM in experiment [3] and 1.75 µM in experiment [4].
As usually defined, the inhibition is the percentage by which the read-out fell short of the control. For `c1ccc(CNCc2cncc(-c3ccc4[nH]nc(-c5nc6c(-c7ccsc7)cncc6[nH]5)c4n3)c2)cc1` [Compound 276, N-Benzyl-1-(5-(3-(7-(thiophen-3-yl)-3H-imidazo[4,5-c]pyridin-2-yl)-1H-pyrazolo[4,3-b]pyridin-5-yl)pyridin-3-yl)methanamine], the EC50 in experiment [1] was greater than 10 µM; in experiment [2] it was 3.46 µM; in experiment [3] it was 1.18 µM; in experiment [4] it was 7.47 µM. Also, the inhibition at 10 µM in experiment [1] (LPS, at 10 μM, read-out: percent inhibition in brackets (given for EC50 >10 μM)) is 39.9%.
For the compound `Cc1ncc(-c2ccc3[nH]nc(-c4nc5c(-c6cc(F)cc(NCCN(C)C)c6)cncc5[nH]4)c3n2)n1C` [Compound 737, N^1-(3-(2-(5-(1,2-Dimethyl-1H-imidazol-5-yl)-1H-pyrazolo[4,3-b]pyridin-3-yl)-3H-imidazo[4,5-c]pyridin-7-yl)-5-fluorophenyl)-N^2,N^2-dimethylethane-1,2-diamine], the EC50 in experiment [1] was 1.17 µM; in experiment [2], 3.85 µM; in experiment [3], greater than 10 µM; in experiment [4] it was 8.95 µM. In addition, in experiment [3], the inhibition at 10 µM worked out at 46.5%.
The corresponding values for `c1cc(-c2cncc3[nH]c(-c4n[nH]c5ccc(-c6cncc(OCCN7CCCC7)c6)nc45)nc23)co1` [Compound 646, 3-(7-(Furan-3-yl)-3H-imidazo[4,5-c]pyridin-2-yl)-5-(5-(2-(pyrrolidin-1-yl)ethoxy)pyridin-3-yl)-1H-pyrazolo[4,3-b]pyridine] are 0.435 µM, 4.62 µM, greater than 10 µM, 3.84 µM and 33.1%.
For the compound `FC1(F)CCN(Cc2cncc(-c3ccc4[nH]nc(-c5nc6c(N7CCCCC7)cncc6[nH]5)c4n3)c2)C1` [Compound 194, 5-(5-((3,3-Difluoropyrrolidin-1-yl)methyl)pyridin-3-yl)-3-(7-(piperidin-1-yl)-3H-imidazo[4,5-c]pyridin-2-yl)-1H-pyrazolo[4,3-b]pyridine], the EC50 came to 6.55 µM in experiment [1], 2.33 µM in experiment [2], 3.59 µM in experiment [3] and 2.71 µM in experiment [4].
Consider `CN(C)CCNc1cc(F)cc(-c2cncc3[nH]c(-c4n[nH]c5ccc(-c6cncc(OCc7ccccc7)c6)nc45)nc23)c1` [Compound 746, N^1-(3-(2-(5-(5-(Benzyloxy)pyridin-3-yl)-1H-pyrazolo[4,3-b]pyridin-3-yl)-3H-imidazo[4,5-c]pyridin-7-yl)-5-fluorophenyl)-N^2,N^2-dimethylethane-1,2-diamine], for which the EC50 in experiment [1] was determined as 1.6 µM; in experiment [2], 2.72 µM; in experiment [3] it was 3.3 µM; in experiment [4], 2.93 µM.
With `COc1cncc(-c2ccc3[nH]nc(-c4nc5c(-c6ccoc6)cncc5[nH]4)c3n2)c1` [Compound 648, 3-(7-(Furan-3-yl)-3H-imidazo[4,5-c]pyridin-2-yl)-5-(5-methoxylpyridin-3-yl)-1H-pyrazolo[4,3-b]pyridine], the EC50 in experiment [1] amounted to 7.04 µM; in experiment [2] it was 0.849 µM; in experiment [3] it was 1.77 µM; in experiment [4], 0.404 µM.
With `O=C(Nc1cncc(-c2ccc3[nH]nc(-c4nc5c(N6CCCCC6)cncc5[nH]4)c3n2)c1)C1CC1` [Compound 188, N-(5-(3-(7-(Piperidin-1-yl)-3H-imidazo[4,5-c]pyridin-2-yl)-1H-pyrazolo[4,3-b]pyridin-5-yl)pyridin-3-yl)cyclopropanecarboxamide], the EC50 worked out at 1.4 µM in experiment [1], 9.7 µM in experiment [2], 4.42 µM in experiment [3] and 4.94 µM in experiment [4].
